According to publication PMC11879280, “Antimicrobial activity of peptoids against Metallo-β-lactamase-producing Klebsiella pneumoniae, Acinetobacter baumannii, Pseudomonas aeruginosa, and other WHO priority pathogens, including Candida auris” (Journal of Applied Microbiology, 2025):
In brackets after ≈: the same amount, converted by molar mass. Where two headings read alike, the source gives them in different places. Square brackets hold non-standard residues; d marks the D form. Peptide text beside a SMILES is read from it. Nspe = C[C@H](NCC(=O)O)c1ccccc1; NDecylGly = CCCCCCCCCCNCC(=O)O; Nlys = NCCCCNCC(=O)O

Columns and labels:
C. auris CBS 10913 [1] = assay: Sorbitol protection assay; format: cell-based, Candida auris; details: CBS10913
Excerpt: Caspofungin served as a positive control for the assay (Leite et al. [2014]).

C. auris CBS10913 [2] = assay: Membrane integrity by flow cytometry (SYTO 9 / PI); format: cell-based, Candida auris
Experimental: Afterwards, the cells were stained with SYTO 9 (7.5 µmol l^−1) and PI (30 µmol l^−1) for an additional 15 min in the dark at room temperature. Following washing, samples were then analysed for membrane integrity on a BD FACSymphony^TM A3, with a minimum of 10 000 events recorded per sample.

[3] = test system: C. auris CBS12373 biofilm; assay: Initial biofilm inhibition, crystal violet assay; format: cell-based, Candida auris; details: crystal violet staining
Experimental: (§1) Another set of experiments was conducted under similar conditions similar to those used for MTT assay.

MDR ESKAPE pathogens = details: ref Nielsen et al. [2022]; cited from earlier work
Excerpt: TM8, TM15, and TM19 featured terminal alkyl tails of either N-decyl or N-tridecyl, while all of them contained chiral aromatic Nspe along with NLys residues. Similarly, TM2, TM4, TM12, TM14, and TM19 w ... || Lipopeptoids can self-assemble into micellar macromolecules due to the hydrophobic tail domains driven by the intermolecular hydrophobic interactions. […] In a ...

[4] = test system: C. auris CBS12373 biofilm; assay: Initial biofilm inhibition, MTT reduction assay; format: cell-based, Candida auris
[5] = test system: C. auris CBS12373 biofilm; format: cell-based, Candida auris; details: for Mature biofilm inhibition, blank corrected 570 nm, av. of readings: MTT absorbance
Experimental: To assess disruption of mature biofilms, 2 × 10^5 cells were cultured for 2 h in 96-well flat bottom microtiter plates at 37°C, washed, then incubated for 48 h in fresh media to form mature biofilm. […] For each activity test, the metabolic activities of the yeast cells in biofilms were measured by MTT reduction assay after washing the disrupted biofilm with PBS (Srivastava and Ahmad [2020]).

[6] = test system: C. auris CBS12373 biofilm; format: cell-based, Candida auris
Experimental: as §1

C. auris CBS12373 = assay: Checkerboard microdilution synergy test; format: cell-based, Candida auris
Experimental: (§2) The checkerboard microdilution test was performed to determine the fractional inhibitory concentration (FIC) of selected antimicrobials and assess whether the combination had synergistic, antagonistic, or indifferent effects (Anon [2016]) against strains of K. pneumoniae or C. auris. […] Additionally, a strain susceptible to ciprofloxacin was tested to observe the outcome of its combination with TM8 as a representative case from susceptible isolates. […] Then, 10 µl of bacteria (5 × 10^6 CFU ml^−1) or C. auris (2.5 × 10^4 CFU ml^−1) were added to each well, except for the sterility control well. […] The sterility control wells contained only MHB (or RPMI in case of C. auris), and the growth control contained 110 µl of microbial inoculum with no antimicrobials. Subsequently, the plates were incubated for 18- 24 hours at 36 ± 1 °C.
(§3) The FIC for each combination interaction was calculated as follows:
(§4) Then, the summation of FIC (ƩFIC) was calculated for each antimicrobial combination as follows: ƩFIC = FICA + FICB. The results were interpretated as follows: Synergy if ƩFIC ≤ 0.5; Additive if 0.5<ƩFIC ≤ 1; Indifference if […] ≤ 4; and Antagonism if ƩFIC > 4 (Odds [2003]). All antimicrobial synergy experiments were repeated in at least two independent runs.

C. auris CBS10913 [7] = assay: Checkerboard microdilution synergy test; format: cell-based, Candida auris
Experimental: as §2, §3, §4

[8] = test system: S. aureus, K. pneumoniae, P. aeruginosa, and En. cloacae biofilm; details: ref Nielsen et al. [2022]; cited from earlier work
Excerpt: Another way microbes can acquire tolerance and become resistant to antimicrobials is by the production of biofilms. In biofilms, microbes switch from planktonic state to sessile form, where they are encased in an extracellular polymeric substance matrix, thereby being protected from stressful environmental conditions (Di Fermo et al. [2024]). Most ESKAPEE pathogens and C. auris form antimicrobial tolerant biofilms associated with device-associated infections (Kean and Ramage [2019], Sarkar et al. [2024]). The antibiofilm activity of some of these peptoids has already been studied against ESKAP ...

[9] = as low as; ref Nielsen et al. [2022]; cited from earlier work
Excerpt: Lipopeptoids can self-assemble into micellar macromolecules due to the hydrophobic tail domains driven by the intermolecular hydrophobic interactions. […] In a ...

C. auris CBS 10913 [10] = assay: Time-kill kinetics; format: cell-based, Candida auris; details: RPMI, 35°C, three independent runs
Experimental: Killing kinetics (time-kill) were evaluated as described previously (Lum et al. [2015]). […] At set intervals (0, 0.5, 1, 1.5, 2, 2.5, 3, 4, 5, 6, 12, and 24 h), 100 µl samples were serially diluted in PBS and plated on Sabouraud dextrose agar (SDA; Oxoid, UK) with 0.5% polysorbate 80 (Chem-supply, SA, Australia). CFUs were enumerated, with a yeast growth control processed similarly. Results were presented from three independent runs.

C. auris CBS 10913 [11] = assay: microbe, parasite or virus in culture; format: cell-based, Candida auris; details: CBS 10913, 48 h
Experimental: Amphotericin B was tested in parallel as a positive control (Ramesh et al. [2023]).

Question: For `CCCCCCCCCCNCC(=O)N(CCCCN)CC(=O)N(CC(=O)N(CC(=O)N(CCCCN)CC(=O)N(CC(=O)N(CC(N)=O)[C@@H](C)c1ccccc1)[C@@H](C)c1ccccc1)[C@@H](C)c1ccccc1)[C@@H](C)c1ccccc1` [TM8] (H-[NDecylGly][Nlys][Nspe][Nspe][Nlys][Nspe][Nspe]-NH2), which “MIC in the presence of sorbitol” value (C. auris CBS 10913 [1]) is on record?
Answer: 7.8 mg/L

Question: And the MIC without sorbitol (C. auris CBS 10913 [1])?
Answer: 7.8 mg/L (≈ 6.99 µM)

Question: What about the Dead cells (C. auris CBS10913 [2]; TM8 at its MIC or 1% Triton X-100, 90 min, PBS control 0.2%) of the same compound?
Answer: 3.9%

Question: What about the “SYTO 9 fluorescent signal of C. auris” value (C. auris CBS10913 [2]; TM8 at its MIC, 90 min, 37°C, PBS, PBS control 51.7%) of the same compound?
Answer: 25.5%

Question: What about the “Cells doubly stained with SYTO 9 and PI” value (C. auris CBS10913 [2]; TM8 at its MIC, 90 min, PBS control 0.7%) of the same compound?
Answer: 21.5%

Question: What about the “MBIC for initial biofilm” value [3] of the same compound?
Answer: 31.25 µg/mL

Question: What about the “MIC against MDR ESKAPE pathogens” value (MDR ESKAPE pathogens) of the same compound?
Answer: < 13 mg/L

Question: And the “Biofilm tolerance factor-inhibition (MBIC/MIC)” value [4]?
Answer: 2

Question: What about the “Biofilm tolerance factor-eradication (MBEC/MIC)” value ([5]; C. auris CBS12373, MTT) of the same compound?
Answer: 4

Question: And the “Mature biofilm MBEC” value ([5]; CBS12373 biofilm, 48 h)?
Answer: 62.5 µg/mL

Question: And the “Mature biofilm inhibition, blank corrected 570 nm, av. of readings” value (“Mature biofilm inhibition” below) ([5]; agent at 0.976562 (growth control 1.115))?
Answer: 1.684

Question: And the “Mature biofilm inhibition” value ([5]; agent at 1.95312 (growth control 1.115))?
Answer: 1.307

Question: And the “Mature biofilm inhibition” value ([5]; agent at 3.90625 (growth control 1.115))?
Answer: 0.871

Question: And the “Mature biofilm inhibition” value ([5]; agent at 7.8125 (growth control 1.115))?
Answer: 0.456

Question: And the “Mature biofilm inhibition” value ([5]; agent at 15.625 (growth control 1.115))?
Answer: 0.49

Question: And the “Mature biofilm inhibition” value ([5]; agent at 31.25 (growth control 1.115))?
Answer: 0.129

Question: What about the “Mature biofilm inhibition” value ([5]; agent at 62.5 (growth control 1.115)) of the same compound?
Answer: 0

Question: What about the “Mature biofilm inhibition” value ([5]; agent at 125 (growth control 1.115)) of the same compound?
Answer: -0.0001

Question: And the “Mature biofilm inhibition” value ([5]; agent at 250 (growth control 1.115))?
Answer: 0.02

Question: And the “Mature biofilm inhibition” value ([5]; agent at 500 (growth control 1.115))?
Answer: 0.02

Question: What about the “MBEC for mature biofilm” value [6] of the same compound?
Answer: 125 µg/mL

Question: And the “MIC of TM8 (alone, checkerboard)” value (C. auris CBS12373)?
Answer: 3.9 mg/L

Question: And the FICTM8 (C. auris CBS12373; TM8 with Fluconazole)?
Answer: 0.5

Question: And the “MF of TM8 (modulation factor)” value (C. auris CBS12373; TM8 with Fluconazole)?
Answer: 2

Question: What about the ƩFIC (C. auris CBS12373; TM8 with Fluconazole) of the same compound?
Answer: 0.563

Question: What about the “MIC of TM8 (alone, checkerboard)” value (C. auris CBS10913 [7]) of the same compound?
Answer: 7.813 mg/L

Question: And the FICTM8 (C. auris CBS10913 [7]; TM8 with Fluconazole)?
Answer: 0.5

Question: What about the “MF of TM8 (modulation factor)” value (C. auris CBS10913 [7]; TM8 with Fluconazole) of the same compound?
Answer: 2

Question: What about the ƩFIC (C. auris CBS10913 [7]; TM8 with Fluconazole) of the same compound?
Answer: 0.563

Question: What about the “Concentration with significant inhibition of biofilm formation” value [8] of the same compound?
Answer: 1.56 µg/mL

Question: What about the “Concentration at which self-assembly into an ellipsoidal form is found” value [9] of the same compound?
Answer: 1 µg/mL

Question: And the “Time to 3-log reduction” value (C. auris CBS 10913 [10]; 1× MIC)?
Answer: ≤ 6 h

Question: And the “Time to complete killing of the yeast cells” value (C. auris CBS 10913 [10]; 1× MIC)?
Answer: ≤ 12 h

Question: What about the “Time to fungicidal activity” value (C. auris CBS 10913 [10]; 4× MIC) of the same compound?
Answer: ≤ 2 h

Question: And the “MIC in the absence of ergosterol” value (C. auris CBS 10913 [11])?
Answer: 7.8 mg/L

Question: And the “MIC in the presence of exogenous ergosterol” value (C. auris CBS 10913 [11])?
Answer: 31.25 mg/L
